Data: patent US20150111933A1, “Deuterated Thiazolidinone Analogues as Agonists for Follicle Stimulating Hormone Receptor” (Merck Patent GmbH, priority 2012, published 2015)

Columns and labels:
FSHR = target: T1, FSHR (Homo sapiens, UniProt P23945); assay: EC50 of cyclic AMP production in CHO FSHR cells + EC20 FSH (HTRF); format: cell-based; settings: Cho-FSHR-LUC-1-1-43 cells; for EC50: + EC20 FSH (0.265 pM), 200 μM IBMX, 1 h at 37° C., read-out: EC50 of cAMP production; for EC50 of cAMP production (% effect) / Emax: + EC20 FSH, % effect in brackets; for Emax: 1 h, read-out: EC50 of cAMP production (% effect)
T1 construct: expressed in transfected cells; host or cells: CHO (Cho-FSHR-LUC-1-1-43)
T1 sequence (P23945 18-695): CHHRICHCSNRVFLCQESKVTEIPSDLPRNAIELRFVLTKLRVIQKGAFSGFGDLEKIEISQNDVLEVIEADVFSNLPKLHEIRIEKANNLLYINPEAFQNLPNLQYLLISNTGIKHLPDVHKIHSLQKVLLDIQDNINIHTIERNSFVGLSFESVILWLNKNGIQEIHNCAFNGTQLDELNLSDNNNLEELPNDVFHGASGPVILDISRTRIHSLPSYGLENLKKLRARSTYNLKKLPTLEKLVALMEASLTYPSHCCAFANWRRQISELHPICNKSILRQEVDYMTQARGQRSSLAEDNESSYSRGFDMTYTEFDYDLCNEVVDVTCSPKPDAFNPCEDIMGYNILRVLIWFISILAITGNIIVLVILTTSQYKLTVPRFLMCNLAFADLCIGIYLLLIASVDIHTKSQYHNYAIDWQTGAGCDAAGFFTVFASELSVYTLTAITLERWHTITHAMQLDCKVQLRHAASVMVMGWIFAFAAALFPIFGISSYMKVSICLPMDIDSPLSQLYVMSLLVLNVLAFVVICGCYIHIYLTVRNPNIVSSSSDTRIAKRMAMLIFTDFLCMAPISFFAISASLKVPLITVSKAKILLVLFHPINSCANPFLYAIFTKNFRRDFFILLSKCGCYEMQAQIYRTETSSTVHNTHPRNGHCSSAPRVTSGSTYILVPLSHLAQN
Procedure: EC50 of Cyclic AMP Production in CHO FSHR Cells+EC20 FSH
2500 Cho-FSHR-LUC-1-1-43 cells were plated per well in 5 μL of phenol red free DMEM/F12+1% FBS. Cells were plated in 384 well, solid white low volume plates (Greiner 784075) by Multidrop. Cells were assayed by adding […] of 2×EC20 FSH/IBMX in DMEM/F12+0.1% BSA) by Multidrop to 2 μL of test compound stamped in 384 well plates (compounds are diluted 1:50). The final FSH concentration was 0.265 pM, and the final IBMX concentration was 200 μM. The compound plate map was as follows: Column 1: 2 μL of DMSO; Column 2: 2 μL of DMSO; Columns 3-12 and 13-24: 2 μL of test compound, diluted 1:4 in 100% DMSO, or 2 μL of FSH, diluted 1:4 in DMEM/F12+0.1% BSA. The starting concentration for FSH was 50 nM (final concentration was 0.5 nM). Furthermore, Column 23 contained 2 μL of EC100 FSH reference (100×) (diluted in DMEM/F12+0.1% BSA) at a final concentration of 0.5 nM, and Column 24 contained 2 μL of 1 mM AS707664/2 reference compound 2. 5 μL of compound+EC20 FSH mixture were transferred to cell plates (1:2 dilution into 5 μL of cell media) The plates were incubated at 37° C. for 1 h. 10 μL of mixed HTRF (CisBio #62AM4PEC) reagents were added per well and incubated at room temperature for 1 h. The plates were read on Envision using the cAMP HTRF—low volume 384 well protocol. The readout was the calculated fluorescence ratio (665 nm/620 nm).

[1] = Intrinsic clearance (Clint) in human liver microsomes; format: in vitro ADME; settings: 0.5 mg/mL protein, NADPH, up to 30 min, first value of human/rat; for Clint (human): human liver microsomes; for microsomal CLint at 0.8 μM: human, liver microsomes, pH 7.4, human liver microsomes
Procedure: (§1) Intrinsic Clearance (Clint) Assay Protocol:
(§2) A Tecan Genesis workstation (RSP 150/8) was used for to perform the microsomal incubations. Analysis was carried out using a Waters ACQUITY UPLC system coupled to an ABSciex API3000 mass spectrometer. Data analysis was performed using Assay Explorer (Symyx).
(§3) 0.1 M potassium phosphate buffer pH 7.4 containing 1 mM MgCl2 15 mM NADPH in phosphate buffer 4.4 mg protein/mL liver microsomes in phosphate buffer acetonitrile 20% DMSO in water
(§4) Each experiment consists of 12 test and 2 reference compounds. The reference compounds are incubated as a cocktail. Dilution of test compounds was done in 2 steps from a 10 mM DMSO stock solution. First 4 μL stock solution was added to 196 μL of 20% DMSO in potassium phosphate buffer pH 7.4. In a second step 10 μL of the first dilution were added to […] potassium phosphate buffer and 100 μL internal standard solution to a final concentration of 0.8 μM. 100 μL of the final compound dilution were aliquoted into a 96 deep well plate. 12.5 μL liver microsomes were added to each well (0.5 mg/mL final protein concentration) and the samples preincubated for 5 min at 37° C. and 800 rpm agitation.
(§5) After the preincubation, 250 μL cold acetonitrile were added to the 0 min samples to prevent a reaction. Following this, 12.5 μL NADPH solution were added to all wells to start the incubation, with the exception of the 0 min and 30 min controls without cofactor, where the NADPH was substituted for phosphate buffer.
(§6) The incubations were stopped after 5, 10, 20 and 30 min by adding 250 μL cold acetonitrile to the individual wells.
(§7) The quenched samples were then centrifuged at 4000 g for 1 h at 4° C. 100 μL of the supernatant were transferred into 96 well plates for analysis.
(§8) The metabolic stability of each compound was determined by measurement of the change in LC-MS/MS peak area over time. Assay Explorer software was used to automatically calculate the slope k of the decline. The intrinsic clearance (Clint) of each compound was then calculated according to the formula:
(§9) Clint (μL/min/mg protein)=k1000/protein concentration.

[2] = Intrinsic clearance (Clint) in rat liver microsomes; format: in vitro ADME; settings: 0.5 mg/mL protein, NADPH, up to 30 min, second value of human/rat; for Clint (rat): rat liver microsomes; for microsomal CLint at 0.8 μM: rat, liver microsomes, pH 7.4, rat liver microsomes
Procedure: as §1, §2, §3, §4, §5, §6, §7, §8, §9

Molecule	EC50 (FSHR)	EC50 of cAMP production (% effect) (FSHR)	Clint (human) [1]	Clint (rat) [2]	Emax (FSHR)	microsomal CLint at 0.8 μM [1]	microsomal CLint at 0.8 μM [2]	EC50 of cAMP production (% effect) (FSHR; 60 min)
3-((2S,5R)-4-oxo-5-(2-oxo-2-((2-(3,4-dimethoxyphenyl-d6l)ethyl)amino)ethyl)-2-(4-(phenylethynyl)phenyl)thiazolidin-3-yl)benzamide [Compound 7]	0.5 nM	(99) %	184 μL/min/mg protein	44 μL/min/mg protein	–	–	–	–
[2H]C([2H])(NC(=O)C[C@H]1S[C@@H](c2ccc(C#Cc3ccccc3)cc2)N(c2cccc(C(N)=O)c2)C1=O)C([2H])([2H])c1ccc(OC)c(OCC)c1 (single isomer, unassigned) [Compound 4]	0.7 nM	–	191 μL/min/mg protein	–	99%	–	51 µL/min/mg	–
[2H]C([2H])([2H])Oc1ccc(C([2H])([2H])C([2H])([2H])NC(=O)C[C@H]2S[C@@H](c3ccc(C#Cc4ccccc4)cc3)N(c3cccc(C(N)=O)c3)C2=O)cc1OC [Compound 3, 3-((2S,5R)-4-oxo-5-(2-oxo-2-((1,1,2,2-d4-2-(3-methoxy-4-(methoxy-d3)phenyl)ethyl)amino)ethyl)-2-(4-(phenylethynyl)phenyl)thiazolidin-3-yl)benzamide]	1.7 nM	–	–	–	97%	111 µL/min/mg	29 µL/min/mg	–
[2H]C([2H])([2H])Oc1ccc(CCNC(=O)C[C@H]2S[C@@H](c3ccc(C#Cc4ccccc4)cc3)N(c3cccc(C(N)=O)c3)C2=O)cc1OCC (single isomer, unassigned) [Compound 6]	0.7 nM	–	–	–	96%	208 µL/min/mg	56 µL/min/mg	–
[2H]C([2H])([2H])Oc1ccc(C([2H])([2H])C([2H])([2H])NC(=O)C[C@H]2S[C@@H](c3ccc(C#Cc4ccccc4)cc3)N(c3cccc(C(N)=O)c3)C2=O)cc1OCC (single isomer, unassigned) [Compound 5]	0.8 nM	–	–	–	99%	168 µL/min/mg	45 µL/min/mg	–
[2H]C([2H])(NC(=O)C[C@H]1S[C@@H](c2ccc(C#Cc3ccccc3)cc2)N(c2cccc(C(N)=O)c2)C1=O)C([2H])([2H])c1ccc(O)c(OC)c1 (single isomer, unassigned) [Compound 1]	0.87 nM	–	–	–	99%	67 µL/min/mg	31 µL/min/mg	–
[2H]C([2H])(NC(=O)C[C@H]1S[C@@H](c2ccc(C#Cc3ccccc3)cc2)N(c2cccc(C(N)=O)c2)C1=O)C([2H])([2H])c1ccc(OC)c(OC)c1 [Compound 2, 3-((2S,5R)-4-oxo-5-(2-oxo-2-((1,1,2,2-d4-2-(3,4-dimethoxyphenyl)ethyl)amino)ethyl)-2-(4-(phenylethynyl)phenyl)thiazolidin-3-yl)benzamide]	1.9 nM	–	–	–	97%	106 µL/min/mg	24 µL/min/mg	–

Next, values leading:

EC50 (FSHR)	EC50 of cAMP production (% effect) (FSHR)	Clint (human) [1]	Clint (rat) [2]	Emax (FSHR)	microsomal CLint at 0.8 μM [1]	microsomal CLint at 0.8 μM [2]	EC50 of cAMP production (% effect) (FSHR; 60 min)	Molecule
1.7 nM	(99) %	188 μL/min/mg protein	54 μL/min/mg protein	–	–	–	–	3-((2S,5R)-5-(2-((3-ethoxy-4-methoxyphenethyl)amino)-2-oxoethyl)-4-oxo-2-(4-((phenyl-d5)ethynyl)phenyl)thiazolidin-3-yl)benzamide [Compound 8]
0.3 nM	–	–	–	97%	181 µL/min/mg	31 µL/min/mg	–	[2H]c1c([2H])c([2H])c(C#Cc2ccc([C@@H]3S[C@H](CC(=O)NC([2H])([2H])C([2H])([2H])c4ccc(OC)c(OCC)c4)C(=O)N3c3cccc(C(N)=O)c3)cc2)c([2H])c1[2H] (single isomer, unassigned) [Compound 9]
2 nM	–	492 μL/min/mg protein	95 μL/min/mg protein	–	–	–	(99) %	[2H]C([2H])(NC(=O)C[C@H]1S[C@@H](c2ccc(C#Cc3ccccc3)cc2)N(c2cccc(C(N)=O)c2)C1=O)C([2H])([2H])c1ccc(OC)c(OCC)c1 (single isomer, unassigned) [Compound 14]
113 nM	–	–	–	103%	351 µL/min/mg	241 µL/min/mg	–	[2H]c1c([2H])c([2H])c(C#Cc2c([2H])c([2H])c([C@H]3N(c4cccc(C(N)=O)c4)C(=O)[C@@H](CC(=O)NC([2H])([2H])C([2H])([2H])c4ccc(OC([2H])([2H])[2H])c(OC([2H])([2H])[2H])c4)[S@@+]3[O-])c([2H])c2[2H])c([2H])c1[2H] (single isomer, unassigned) [Compound 21]
0.3 nM	–	–	–	98%	182 µL/min/mg	120 µL/min/mg	–	CCOc1cc(CCNC(=O)C[C@H]2S[C@@H](c3ccc(C#Cc4ccccc4)cc3)N(c3cccc(C(N)=O)c3)C2=O)ccc1OC [Reference compound, reference compound]
25 nM	–	–	–	103%	35 µL/min/mg	18 µL/min/mg	–	[2H]c1c([2H])c([2H])c(C#Cc2c([2H])c([2H])c([C@H]3N(c4cccc(C(N)=O)c4)C(=O)[C@@H](CC(=O)NC([2H])([2H])C([2H])([2H])c4ccc(OC([2H])([2H])[2H])c(OCC)c4)[S@@+]3[O-])c([2H])c2[2H])c([2H])c1[2H] (single isomer, unassigned) [Compound 20]
0.3 nM	–	–	–	98%	161 µL/min/mg	23 µL/min/mg	–	[2H]c1c([2H])c([2H])c(C#Cc2ccc([C@@H]3S[C@H](CC(=O)NC([2H])([2H])C([2H])([2H])c4ccc(OC([2H])([2H])[2H])c(OCC)c4)C(=O)N3c3cccc(C(N)=O)c3)cc2)c([2H])c1[2H] (single isomer, unassigned) [Compound 10]
